Values after ≈ are worked out from the molar mass of the structure shown. Where a SMILES comes first, the peptide text is derived from it. [ ]: non-standard residue; d: D form. The star is where a group is joined. Stearoyl = CCCCCCCCCCCCCCCCCC(=O)*; Palmitoyl = CCCCCCCCCCCCCCCC(=O)*; Myristoyl = CCCCCCCCCCCCCC(=O)*; Undecanoyl = CCCCCCCCCCC(=O)*; Lauroyl = CCCCCCCCCCCC(=O)*; Decanoyl = CCCCCCCCCC(=O)*; Octanoyl = CCCCCCCC(=O)*
Tests used:
C. albicans 105 = system: C. albicans 105
Method: (§1) We conducted the minimal inhibitory concentration (MIC) determination using CLSI (Clinical and Laboratory standard Institute) recommended standard protocol for antimicrobials (Methods for Dilution Antimicrobial Susceptibility Tests for Bacteria That Grow Aerobically; Approved Standard—Ninth Edition).
(§2) 2. Bacterial strains and culture conditions. E. coli UB1005, S. aureus SAP0017 (MRSA) and C. albicans 105 were grown in Mueller Hinton (MH) (Difco, BD Biosciences, MD) agar plates and broth (2 g of beef extract, 17.5 g of acid hydrolysis of casein and 1.5 g of starch per liter) at 37° C. unless otherwise indicated. Bacteria from frozen stock were subcultured onto freshly made MH agar plates prior to susceptibility testing. For P. acnes, the bacterium was grown in BBL™ Brain-Heart infusion (Becton, Dickinson & Company, Sparks Md.) broth or agar plates at 37° C. in anaerobic condition generated using a anaerobic jar and AnaeroGen™ (Oxoid, Basingstoke, Hampshire, England).
(§3) 3. […] The minimal inhibitory concentration (MIC) of each peptide was determined using modified CLSI microtiter broth dilution assay (Methods for Dilution Antimicrobial Susceptibility Tests for Bacteria That Grow Aerobically; Approved Standard—Ninth Edition). An inoculum of 10^5-10^6 colony forming units (CFU)/ml was used or 10^4 CFU/ml for yeast. The MIC value was taken as the lowest peptide concentration at which more than 90% of microbial growth was inhibited after 15 to 20 h of incubation at 37° C. For P. acnes, the incubation was kept under anaerobic condition at 37° C. for 2 weeks before MIC was determined Kill kinetics was performed using a given concentration (about 2-5-fold MIC) of peptide mixed with indicator microorganism. After appropriate dilution the cells were plated on agar plates after defined time intervals and incubated at 37° C. overnight. In the case of P. acnes an extended incubation period was required. The CFU was counted and plotted as survival of bacteria after peptide treatment over time, which indicates the effectiveness of a peptide to kill a microbe.

E. coli UB1005 = system: E. coli UB1005
Method: as §1, §2, §3

S. aureus SAP0017 (MRSA) = system: S. aureus SAP0017 (MRSA)
Method: as §1, §2, §3

P. acnes = format: cell-based, Propionibacterium acnes
Method: as §2, §3

| Structure (SMILES) | MIC C. albicans (C. albicans 105) | MIC E. coli (E. coli UB1005) | MIC S. aureus (S. aureus SAP0017 (MRSA)) | MIC P. acnes (P. acnes) |
| --- | --- | --- | --- | --- |
| CCCCCCCCCCCCCCCCCC(=O)N[C@@H](CCCCN)C(=O)N1CCC[C@H]1C(=O)N[C@H](C(N)=O)C(C)C [HB2194, Stearoyl-KPV-NH2] (Stearoyl-Lys-Pro-Val-NH2) | 16 µg/mL (≈ 0.0263 mM) | >2000 µg/mL | 16 µg/mL (≈ 0.0263 mM) | 1 to 2 µg/mL |
| CCCCCCCCCCCCCCCC(=O)N1CCC[C@@H]1C(=O)N[C@@H](CO)C(N)=O [HB2207, Pal-dPS-NH2] (Palmitoyl-[dP]-Ser-NH2) | >2000 µg/mL | >2000 µg/mL | >2000 µg/mL | 32 µg/mL (≈ 0.0728 mM) |
| CCCCCCCCCCCCCCC(=O)N[C@@H](CCCCN)C(=O)N1CCC[C@@H]1C(=O)N[C@H](C(N)=O)[C@@H](C)O [HB2199, Pentadecanoyl-KdPT-NH2] | 32 µg/mL (≈ 0.0564 mM) | 64 µg/mL (≈ 0.113 mM) | 32 µg/mL (≈ 0.0564 mM) | 2 to 4 µg/mL |
| CCCCCCCCCCCCCCCC(=O)N[C@@H](CCCCN)C(=O)N[C@@H](Cc1c[nH]c2ccccc12)C(N)=O [HB2248, Pal-KW-NH2] (Palmitoyl-Lys-Trp-NH2) | >2000 µg/mL | >2000 µg/mL | >2000 µg/mL | >2000 µg/mL |
| CCCCCCCC(=O)N[C@@H](CCCCN)C(=O)N1CCC[C@H]1C(=O)N[C@H](C(N)=O)C(C)C [HB2188, Octanoyl-KPV-NH2] (Octanoyl-Lys-Pro-Val-NH2) | >2000 µg/mL | >2000 µg/mL | >2000 µg/mL | >2000 µg/mL |
| CCCCCCCCCCCCCCCC(=O)N1CCC[C@H]1C(=O)N[C@@H](CCCCN)C(N)=O [HB2251, Pal-PK-NH2] (Palmitoyl-Pro-Lys-NH2) | 128 µg/mL (≈ 0.266 mM) | 2000 µg/mL (≈ 4.16 mM) | 128 µg/mL (≈ 0.266 mM) | 4 to 16 µg/mL |
| CCCCCCCCCCCCCCCC(=O)N[C@@H](CCCCN)C(=O)N1CCC[C@@H]1C(=O)O [HB2256, Pal-K-dP-OH] (Palmitoyl-Lys-[dP]-OH) | >2000 µg/mL | >2000 µg/mL | >2000 µg/mL | >2000 µg/mL |
| CCCCCCCCCCCC(=O)N[C@@H](CCCCN)C(=O)N1CCC[C@H]1C(=O)N[C@H](C(N)=O)C(C)C [HB2190, Lauroyl-KPV-NH2] (Lauroyl-Lys-Pro-Val-NH2) | >2000 µg/mL | 250 µg/mL (≈ 0.477 mM) | 250 µg/mL (≈ 0.477 mM) | 64 µg/mL (≈ 0.122 mM) |
| CCCCCCCCCCCCCCC(=O)N[C@@H](CCCCN)C(=O)N1CCC[C@H]1C(=O)N[C@H](C(N)=O)C(C)C [HB2192, Pentadecanoyl-KPV-NH2] | 32 µg/mL (≈ 0.0566 mM) | 64 µg/mL (≈ 0.113 mM) | 16 µg/mL (≈ 0.0283 mM) | 1 µg/mL (≈ 0.00177 mM) |
| CCCCCCCCCCCCCCCC(=O)N[C@@H](CCCCN)C(=O)N[C@@H](C(N)=O)[C@H](C)O [HB2237, Pal-K-dT-NH2] | >2000 µg/mL | >2000 µg/mL | >2000 µg/mL | 128 to 256 µg/mL |
| CCCCCCCCCC(=O)N[C@@H](CCCCN)C(=O)N1CCC[C@@H]1C(=O)N[C@H](C(N)=O)[C@@H](C)O [HB2179, Dec-K-dPT-NH2] (Decanoyl-Lys-[dP]-Thr-NH2) | >2000 µg/mL | >2000 µg/mL | >2000 µg/mL | >2000 µg/mL |
| CCCCCCCCCC(=O)N[C@@H](CCCCN)C(=O)N1CCC[C@H]1C(=O)N[C@H](C(=O)O)C(C)C [HB2185, Dec-KPV-OH] (Decanoyl-Lys-Pro-Val-OH) | >2000 µg/mL | >2000 µg/mL | >2000 µg/mL | >2000 µg/mL |
| CCCCCCCCCC(=O)N[C@@H](CCCCN)C(=O)N1CCC[C@H]1C(=O)N[C@H](C(N)=O)C(C)C [HB2181, Dec-KPV-NH2] (Decanoyl-Lys-Pro-Val-NH2) | >2000 µg/mL | >2000 µg/mL | >2000 µg/mL | 1000 µg/mL (≈ 2.02 mM) |
| CCCCCCCCCCC(=O)N[C@@H](CCCCN)C(=O)N1CCC[C@H]1C(=O)N[C@H](C(N)=O)C(C)C [HB2189, Undecoyl-KPV-NH2] (Undecanoyl-Lys-Pro-Val-NH2) | >2000 µg/mL | 2000 µg/mL (≈ 3.92 mM) | 1000 µg/mL (≈ 1.96 mM) | 256 to 500 µg/mL |
| CCCCCCCCCCCCCCCC(=O)N[C@@H](CCCCN)C(=O)N[C@@H](CCCCN)C(N)=O [HB2238, Pal-KK-NH2] | 16 µg/mL (≈ 0.0313 mM) | 2 µg/mL (≈ 0.00391 mM) | 4 µg/mL (≈ 0.00782 mM) |  |
| CCCCCCCCCCC(=O)N[C@@H](CCCCN)C(=O)N1CCC[C@@H]1C(=O)N[C@H](C(N)=O)[C@@H](C)O [HB2196, Undecoyl-KdPT-NH2] (Undecanoyl-Lys-[dP]-Thr-NH2) | 1000 µg/mL (≈ 1.95 mM) | 2000 µg/mL (≈ 3.91 mM) | 1000 µg/mL (≈ 1.95 mM) | 256 to 500 µg/mL |
| CCCCCCCCCCCCCCCC(=O)N[C@@H](CCCCN)C(=O)N[C@@H](CC(=O)O)C(N)=O [HB2252, Pal-KD-NH2] (Palmitoyl-Lys-Asp-NH2) | >2000 µg/mL | >2000 µg/mL | >2000 µg/mL |  |
| CCCCCCCCCCCCCCCC(=O)N[C@@H](CCCCN)C(=O)N[C@@H](Cc1ccccc1)C(N)=O [HB2241, Pal-KF-NH2] | >2000 µg/mL | >2000 µg/mL | >2000 µg/mL | >2000 µg/mL |
| CCCCCCCCCCCC(=O)N[C@@H](CCCCN)C(=O)N1CCC[C@@H]1C(=O)N[C@H](C(N)=O)[C@@H](C)O [HB2197, Lauroyl-kdPT-NH2] (Lauroyl-Lys-[dP]-Thr-NH2) | 500 µg/mL (≈ 0.951 mM) | 1000 µg/mL (≈ 1.9 mM) | 500 µg/mL (≈ 0.951 mM) | 128 µg/mL (≈ 0.243 mM) |
| CCCCCCCCCCCCCCCC(=O)N[C@@H](CCCCN)C(=O)N[C@@H](C)C(N)=O [HB2240, Pal-KA-NH2] (Palmitoyl-Lys-Ala-NH2) | >2000 µg/mL | >2000 µg/mL | >2000 µg/mL | >2000 µg/mL |
| CCCCCCCCCCCCCCCC(=O)N[C@@H](CCCCN)C(=O)N[C@@H](CCCCN)C(=O)O [HB2258, Pal-KK-OH] | 64 µg/mL (≈ 0.125 mM) | 32 µg/mL (≈ 0.0624 mM) | 16 µg/mL (≈ 0.0312 mM) | 1 to 4 µg/mL |
| CCCCCCCCCCCCCCCC(=O)N[C@@H](CCCCN)C(=O)N[C@H](C(N)=O)C(C)C [HB2239, Pal-KV-NH2] (Palmitoyl-Lys-Val-NH2) | >2000 µg/mL | >2000 µg/mL | >2000 µg/mL | >2000 µg/mL |
| CCCCCCCCCCCCCCCC(=O)N[C@@H](CCCCN)C(=O)N[C@H](C(N)=O)[C@@H](C)O [HB2236, Pal-KT-NH2] | >2000 µg/mL | >2000 µg/mL | >2000 µg/mL | 256 to 1000 µg/mL |
| CCCCCCCCCCCCCC(=O)N[C@@H](CCCCN)C(=O)N1CCC[C@H]1C(=O)N[C@H](C(N)=O)C(C)C [HB2191, Myristoyl-KPV-NH2] (Myristoyl-Lys-Pro-Val-NH2) | 250 µg/mL (≈ 0.453 mM) | 500 µg/mL (≈ 0.906 mM) | 250 µg/mL (≈ 0.453 mM) | 16 µg/mL (≈ 0.029 mM) |
